pEC50: −log10 of the molar value.

The values below come from US9376420B2 (YUHAN CORPORATION, priority 2012, dated 2016).

In the test the target is T1, human LXRβ (Homo sapiens, UniProt P55055).
T1 construct: expressed in transfected cells; host or cells: HEK293 cells (ATCC CRL-1573), transient transfection with pFA-hLXRβ/GAL4 and pUAS
T1 sequence (P55055 222-460 limits assumed): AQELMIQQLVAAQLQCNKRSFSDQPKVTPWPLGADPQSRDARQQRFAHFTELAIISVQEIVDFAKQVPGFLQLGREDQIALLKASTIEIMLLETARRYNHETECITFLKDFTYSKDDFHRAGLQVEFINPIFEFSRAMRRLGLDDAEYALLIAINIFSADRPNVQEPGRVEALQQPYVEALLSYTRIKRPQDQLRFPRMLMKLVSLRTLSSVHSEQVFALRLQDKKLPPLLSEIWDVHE
The experiment in a line: Assay for Transcriptional Activity of LXRβ (GAL4-hLXRβ LBD luciferase reporter, transient transfection). Format: cell-based. The conditions noted are these: HEK293 cells transfected with pFA-hLXRβ/GAL4 and pUAS, 24 hours; for Emax: fold value in comparison with the control (DMSO-treated group); for pEC50: increase of transcriptional activity of LXRβ, average of three independent tests. An excerpt:
The ligand-binding domain (LBD) cDNA of human LXRβ was inserted into an expression vector (pFA, Stratagene, USA) site adjacent to the yeast GAL4 transcription factor DNA binding domain to prepare an expression construct (pFA-hLXRβ/GAL4) (Willey et al., Genes & Development 9 1033-1045 (1995). The GAL4-responsive luciferase reporter plasmid, i.e., pUAS (Stratagene, USA), contained five copies of the GAL4 response element placed adjacent to the promoter and the luciferase reporter gene. The pFA-hLXRβ/GAL4 and pUAS were introduced into mammalian cells through transient transfection, followed by measuring the transcriptional activity of LXRβ.
HEK293 cells (human kidney cells, sATCC, CRL-1573) were incubated at a T-75 flask containing a DMEM supplemented with 10% fetal bovine serum (FBS) in a 37° C., until they reach about 70˜80% confluency. The culture media containing the cells was added to each well of a 96-well plate in a density of 5×10^4 cells per well. The pFA-hLXRβ/GAL4 and pUAS was transfected to the cells using a cationic-lipid transfection reagent (Lipofectamine™, Invitrogen), through culturing at 37° C. for 3 hours for transient transfection according to the manufacturer's instruction. The test compounds were dissolved in dimethyl sulfoxide (DMSO) in the concentrations of 50, 30, 10, 3, 1, 0.3, 0.1, 0.03, and 0.01 μM and then cells were treated with the prepared compound-containing solution (100 μl). The cells were incubated at 37° C. for 24 hours. After removal of the medium from each well, the lysis buffer (25 mM Tricine pH7.8, 2 mM DTT, 2 mM EGTA, 10% glycerol, 1% Triton X-100) was added with the amount of 20 μl per each well, and the plate was stirred at room temperature for 15 minutes. The luciferase reagent (prepared by adding 10 ml of the luciferase buffer (Promega) to 1 vial of the luciferase substrate (Promega)) was added to each well with the amount of 100 μl per well, followed by assaying with a luminometer according to the manufacturer's instruction.
The dose-response curve for calculating the EC50 values of the test compounds on the increase of transcriptional activity of LXRβ was prepared using the known LXR agonist (i.e., N-(2,2,2-trifluoro-ethyl)-N-[4-(2,2,2-trifluoro-1-hydroxy-1-trifluoromethyl-ethyl)-phenyl]-benzenesulfonamide) as a positive control and the vehicle (DMSO) as a negative control. The dose-response curve was produced from the 9-point curve having different concentrations at a 1/2 log unit. The EC50 value of a test compound, which is defined as a concentration for initiating the reaction corresponding to the half value between the Top value (i.e., the maximum value) and the Bottom value (baseline), was calculated according to the following equation. Y=Bottom+(Top-Bottom)/(1+10^((log EC50-X)*Hill Slope)).
In the above equation, Y is the observed value; X is the log concentration; Hill Slope is the slope of the curve; and Top and Bottom are the maximum value of test compound and the baseline value, respectively.
The following tables 1 and 2 show the EC50 values of the test compounds measured as in the above. In the tables 1 and 2, each EC50 value represents an average value obtained from three independent tests.
Background: In a reporter assay the amount or activity of a reporter protein is the signal.

In the case of `COc1ncc(-c2ccc(C3CC(C(O)(C(F)(F)F)C(F)(F)F)=NN3c3ccccc3Cl)cc2)c(OC)n1` (centres unmarked) [Example 280, 1-(2-chloro-phenyl)-5-[4-(2,4-dimethoxy-pyrimidin-5-yl)-phenyl]-3-[di-(trifluoromethyl)-hydroxy-methyl]-4,5-dihydro-1H-pyrazole], the Emax stood at 81 fold and the pEC50 was 6.25.
On to `CSc1cccc(-c2ccc(C3CC(C(O)(C(F)(F)F)C(F)(F)F)=NN3c3ccccc3Cl)c(F)c2)c1` (centres unmarked) [Example 338, 1-(2-chloro-phenyl)-5-(3-fluoro-3′-methylsulfanyl-biphenyl-4-yl)-3-[di-(trifluoromethyl)-hydroxy-methyl]-4,5-dihydro-1H-pyrazole], for which the Emax was found to be 87 fold and the pEC50 is 6.07.
`CC(=O)c1ccccc1-c1ccc(C2CC(C(O)(C(F)(F)F)C(F)(F)F)=NN2c2ccccc2Cl)cn1` (centres unmarked) [Example 348, 5-[6-(2-acetyl-phenyl)-pyridin-3-yl]-1-(2-chloro-phenyl)-3-[di-(trifluoromethyl)-hydroxy-methyl]-4,5-dihydro-1H-pyrazole] gave an Emax of 45 fold and a pEC50 of 6.00.
The matching figures for `CN(CCO)S(=O)(=O)c1ccc(-c2ccc(C3CC(C(O)(C(F)(F)F)C(F)(F)F)=NN3c3ccc(F)cc3F)cc2)cc1` (centres unmarked) [Example 386, 1-(2,4-difluoro-phenyl)-5-{4′-[(2-hydroxy-ethyl)-methyl-sulfamoyl]-biphenyl-4-yl}-3-[di-(trifluoromethyl)-hydroxy-methyl]-4,5-dihydro-1H-pyrazole]: 35 fold and 6.77.
The matching figures for “1-(2,4-difluoro-phenyl)-5-(4-fluoro-3′-methanesulfonyl-biphenyl-3-yl)-3-pentafluoroethyl-4,5-dihydroxy-1H-pyrazole [Example 141]”: 127 fold and 7.74.
The matching figures for `COc1ncc(-c2ccc(C3CC(C(O)(C(F)(F)F)C(F)(F)F)=NN3c3ccccc3Cl)cc2)cn1` (centres unmarked) [Example 279, 1-(2-chloro-phenyl)-5-[4-(2-methoxy-pyrimidin-5-yl)-phenyl]-3-[di-(trifluoromethyl)-hydroxy-methyl]-4,5-dihydro-1H-pyrazole]: 67 fold and 6.03.
`OC(C1=NN(c2ccccc2Cl)C(c2ccc(-c3ccc(F)nc3)cc2)C1)(C(F)(F)F)C(F)(F)F` (centres unmarked) [Example 268, 1-(2-chloro-phenyl)-5-[4-(6-fluoro-pyridin-3-yl)-phenyl]-3-[di-(trifluoromethyl)-hydroxy-methyl]-4,5-dihydro-1H-pyrazole]: the Emax stood at 88 fold and the pEC50 was 6.34.
The matching figures for `CS(=O)(=O)c1cc(F)c(-c2ccc(C3CC(C(O)(C(F)(F)F)C(F)(F)F)=NN3c3ccc(F)cc3F)cc2)c(F)c1` (centres unmarked) [Example 389, 1-(2,4-difluoro-phenyl)-5-(2′,6′-difluoro-4′-methanesulfonyl-biphenyl-4-yl)-3-[di-(trifluoromethyl)-hydroxy-methyl]-4,5-dihydro-1H-pyrazole]: 29 fold and 6.30.
The matching figures for `CC(=O)Nc1cccc(-c2ccc(C3CC(C(O)(C(F)(F)F)C(F)(F)F)=NN3c3ccccc3Cl)cc2)c1` (centres unmarked) [Example 309, 5-(3′-acetaminobiphenyl-4-yl)-1-(2-chloro-phenyl)-3-[di-(trifluoromethyl)-hydroxy-methyl]-4,5-dihydro-1H-pyrazole]: 84 fold and 5.71.
In turn, `CCOc1cccc(-c2ccc(C3CC(C(O)(C(F)(F)F)C(F)(F)F)=NN3c3ccccc3Cl)c(F)c2)c1` (centres unmarked) [Example 339, 1-(2-chloro-phenyl)-5-(3′-ethoxy-3-fluoro-biphenyl-4-yl)-3-[di-(trifluoromethyl)-hydroxy-methyl]-4,5-dihydro-1H-pyrazole] gave an Emax of 71 fold and a negative-log EC50 (pEC50) of 5.95.
The matching figures for `CC(=O)c1cccc(-c2ccc(C3CC(C(O)(C(F)(F)F)C(F)(F)F)=NN3c3ccccc3Cl)cc2F)c1` (centres unmarked) [Example 361, 5-(3′-acetyl-2-fluoro-biphenyl-4-yl)-1-(2-chloro-phenyl)-3-[di-(trifluoromethyl)-hydroxy-methyl]-4,5-dihydro-1H-pyrazole]: 39 fold and 6.20.
The matching figures for `CC(C)(C)OC(=O)N1CC=C(c2cccc(N3N=C(C(O)(C(F)(F)F)C(F)(F)F)CC3c3ccccc3Cl)c2)CC1` (centres unmarked) [Example 433, 5-(2-chloro-phenyl)-1-[3-(1-BOC-1,2,3,6-tetrahydropyridin-4-yl)-phenyl]-3-[di-(trifluoromethyl)-hydroxy-methyl]-4,5-dihydro-1H-pyrazole]: 13 fold and 5.18.
The matching figures for `Fc1ccc(N2N=C(C(F)(F)C(F)(F)F)CC2c2cccc(-c3ccc(F)nc3)c2)c(F)c1` (centres unmarked) [Example 55, 1-(2,4-difluoro-phenyl)-5-[3-(6-fluoro-pyridin-3-yl)-phenyl]-3-pentafluoroethyl-4,5-dihydro-1H-pyrazole]: 73 fold and 5.31.
Turning to `CCOC(=O)c1cncc(-c2ccc(C3CC(C(O)(C(F)(F)F)C(F)(F)F)=NN3c3ccc(F)cc3F)cc2)c1` (centres unmarked) [Example 378], the Emax was determined as 30 fold and the negative logarithm of the EC50 (pEC50) is 6.13.
The matching figures for `CSc1ccc(-c2ccc(C3CC(C(O)(C(F)(F)F)C(F)(F)F)=NN3c3ccccc3Cl)cc2)cc1` (centres unmarked) [Example 243, 1-(2-chloro-phenyl)-5-[4′-(methylsulfanyl)-biphenyl-4-yl]-3-[di-(trifluoromethyl)-hydroxy-methyl]-4,5-dihydro-1H-pyrazole]: 112 fold and 6.21.
The matching figures for `CC(C)(C)OC(=O)N1CC=C(c2cccc(C3CC(C(O)(C(F)(F)F)C(F)(F)F)=NN3c3ccccc3Cl)c2)CC1` (centres unmarked) [Example 229, 1-(2-chloro-phenyl)-5-[3-(1-BOC-1,2,3,6-tetrahydropyridin-4-yl)-phenyl]-3-[di-(trifluoromethyl)-hydroxy-methyl]-4,5-dihydro-1H-pyrazole]: 126 fold and 7.12.
The matching figures for `OC(C1=NN(c2ccccc2Cl)C(c2ccc(-c3ccc(F)cc3)cc2)C1)(C(F)(F)F)C(F)(F)F` (centres unmarked) [Example 246, 1-(2-chloro-phenyl)-5-(4′-fluoro-biphenyl-4-yl)-3-[di-(trifluoromethyl)-hydroxy-methyl]-4,5-dihydro-1H-pyrazole]: 47 fold and 5.85.
In turn, `CCS(=O)(=O)N1CCN(c2ccc(C3CC(C(O)(C(F)(F)F)C(F)(F)F)=NN3c3ccccc3Cl)cc2)CC1` (centres unmarked) [Example 313, 1-(2-chloro-phenyl)-5-[4-(4-ethanesulfonyl-piperazin-1-yl)-phenyl]-3-[di-(trifluoromethyl)-hydroxy-methyl]-4,5-dihydro-1H-pyrazole] had an Emax of 56 fold and a negative logarithm of the EC50 (pEC50) of 5.95.
The matching figures for `CNCCCS(=O)(=O)c1cccc(-c2ccc(C3CC(C(O)(C(F)(F)F)C(F)(F)F)=NN3c3ccccc3Cl)cc2)c1` (centres unmarked) [Example 334, 1-(2-chloro-phenyl)-5-{3′-[3-(methyl-amino)-propane-1-sulfonyl]-biphenyl-4-yl}-3-[di-(trifluoromethyl)-hydroxy-methyl]-4,5-dihydro-1H-pyrazole]: 102 fold and 6.53.

What is called pEC50 is the EC50 on a negative log10 scale, so that one unit is a factor of ten.
